Measurements: the OligoGym collection
Only the 19 paired bases of each siRNA are shown; overhangs and chemistry are not given here.

Columns and labels:
Test in all cases: five studies, different assays
Settings in all cases: siRNA
PTEN = biological target: PTEN
GAPDH = biological target: GAPDH
[1] = biological target: placental-type alkaline phosphatase
ICAM1 = biological target: ICAM1
Note: test concentration or dose not given here.

## sense GCGGUCCAGAGCCAAGCGG / antisense CCGCUUGGCUCUGGACCGC
PTEN
  target inhibition: 31%

## sense CUCUGGCUGCUGAGGAGAA / antisense UUCUCCUCAGCAGCCAGAG
PTEN
  target inhibition: 52%

## sense CCCCUGGCCAAGGUCAUCC / antisense GGAUGACCUUGGCCAGGGG
GAPDH
  target inhibition: -2.51%

## sense AAAGGUGAAGAUAUAUUCC / antisense GGAAUAUAUCUUCACCUUU
PTEN
  target inhibition: 9%

## sense UGACACCGCCAAAUUUAAU / antisense AUUAAAUUUGGCGGUGUCA
PTEN
  target inhibition: 65%

## sense CCUUUUGUGAAGAUCUUGA / antisense UCAAGAUCUUCACAAAAGG
PTEN
  target inhibition: 73%

## sense AAGAAUGGGCUUGAAACAU / antisense AUGUUUCAAGCCCAUUCUU
PTEN
  target inhibition: 40%

## sense UUUCCAUCCUGCAGAAGAA / antisense UUCUUCUGCAGGAUGGAAA
PTEN
  target inhibition: 27%

## sense UCUGGUGCAGGAAUGGCUG / antisense CAGCCAUUCCUGCACCAGA
[1]
  target inhibition: 30%

## sense AGGAGAACCCGGACUUCUG / antisense CAGAAGUCCGGGUUCUCCU
[1]
  target inhibition: 81%

## sense ACCAUGAGAAGUAUGACAA / antisense UUGUCAUACUUCUCAUGGU
GAPDH
  target inhibition: 92.5%

## sense UGUUCGUCAUGGGUGUGAA / antisense UUCACACCCAUGACGAACA
GAPDH
  target inhibition: 80.3%

## sense UCAUGGGUGUGAACCAUGA / antisense UCAUGGUUCACACCCAUGA
GAPDH
  target inhibition: 60.5%

## sense GGAGCCAAAAGGGUCAUCA / antisense UGAUGACCCUUUUGGCUCC
GAPDH
  target inhibition: 88.7%

## sense AAGUAUGACAACAGCCUCA / antisense UGAGGCUGUUGUCAUACUU
GAPDH
  target inhibition: 94.2%

## sense UCAAAGUAGAGUUCUUCCA / antisense UGGAAGAACUCUACUUUGA
PTEN
  target inhibition: 30%

## sense GAAUCUGGUGCAGGAAUGG / antisense CCAUUCCUGCACCAGAUUC
[1]
  target inhibition: 56.5%

## sense GCCAAGAACCUCAUCAUCU / antisense AGAUGAUGAGGUUCUUGGC
[1]
  target inhibition: 90.8%

## sense GAGUGCAGCACGCCUCGCC / antisense GGCGAGGCGUGCUGCACUC
[1]
  target inhibition: -5%

## sense CGGAAACGGUCCAGGCUAU / antisense AUAGCCUGGACCGUUUCCG
[1]
  target inhibition: 80.2%

## sense GCACAUCCAGGGACCCGGG / antisense CCCGGGUCCCUGGAUGUGC
PTEN
  target inhibition: 32%

## sense CACUGACUCUGAUCCAGAG / antisense CUCUGGAUCAGAGUCAGUG
PTEN
  target inhibition: 15%

## sense AUGACAACAGCCUCAAGAU / antisense AUCUUGAGGCUGUUGUCAU
GAPDH
  target inhibition: 58.3%

## sense CUUCCUCGGCUUCUCCUGA / antisense UCAGGAGAAGCCGAGGAAG
PTEN
  target inhibition: 62%

## sense UUCCGAAAGGUUUUGCUAC / antisense GUAGCAAAACCUUUCGGAA
PTEN
  target inhibition: 32%

## sense UGACAACUUUGGUAUCGUG / antisense CACGAUACCAAAGUUGUCA
GAPDH
  target inhibition: 43%

## sense AAGAAACACAGCAACAAUG / antisense CAUUGUUGCUGUGUUUCUU
PTEN
  target inhibition: 30%

## sense ACAGACAGCCGCCAAGAAC / antisense GUUCUUGGCGGCUGUCUGU
[1]
  target inhibition: 54.7%

## sense CGGAUGUUACCGAGAGCGA / antisense UCGCUCUCGGUAACAUCCG
[1]
  target inhibition: 32%

## sense AGUGAAUCUGUAUUGGGGU / antisense ACCCCAAUACAGAUUCACU
PTEN
  target inhibition: 39%

## sense GGUCUUCCGAGGCGCCCGG / antisense CCGGGCGCCUCGGAAGACC
PTEN
  target inhibition: 0%

## sense GAUCAUCAGCAAUGCCUCC / antisense GGAGGCAUUGCUGAUGAUC
GAPDH
  target inhibition: 70.8%

## sense UGCUGAUGCCCCCAUGUUC / antisense GAACAUGGGGGCAUCAGCA
GAPDH
  target inhibition: 12.7%

## sense CAGUCAGAGGCGCUAUGUG / antisense CACAUAGCGCCUCUGACUG
PTEN
  target inhibition: 73%

## sense CGGCGCCCGGCCGGAUGUU / antisense AACAUCCGGCCGGGCGCCG
[1]
  target inhibition: 60%

## sense CUACACGGUCCUCCUAUAC / antisense GUAUAGGAGGACCGUGUAG
[1]
  target inhibition: 21.2%

## sense AAGUCUAGCCUGAUGAGAG / antisense CUCUCAUCAGGCUAGACUU
ICAM1
  target inhibition: 50%

## sense UUCCCGUUUUAUUCCAGUU / antisense AACUGGAAUAAAACGGGAA
PTEN
  target inhibition: 38%

## sense GGAGCUUCGUGUCCUGUAU / antisense AUACAGGACACGAAGCUCC
ICAM1
  target inhibition: 58%

## sense UGACGGAUGCCAGCUUGGG / antisense CCCAAGCUGGCAUCCGUCA
ICAM1
  target inhibition: 29%

## sense GGGCGGGCCAGCUCACCAG / antisense CUGGUGAGCUGGCCCGCCC
[1]
  target inhibition: 20%

## sense GUGUGAACCAUGAGAAGUA / antisense UACUUCUCAUGGUUCACAC
GAPDH
  target inhibition: 92.7%

## sense CCAUGAGGACAUACAACUG / antisense CAGUUGUAUGUCCUCAUGG
ICAM1
  target inhibition: 58%

## sense ACACUGCAGGAGAGUGCCU / antisense AGGCACUCUCCUGCAGUGU
ICAM1
  target inhibition: 0%
